Data: US11224609B2, “Mithramycin derivatives having increased selectivity and anti-cancer activity” (University of Kentucky Research Foundation, priority 2017, dated 2022)
Values joined by “and” are separate entries in the source; they are usually repeats but may differ in a detail not shown here. Equal entries are not always repeated.

What was measured:
[1] = test system: PC-3 (prostate cancer, no ETS translocation) cell line; assay: 72 h growth inhibition (GI50) assay in PC-3; settings: read-out: PC-3 Prostate cancer No ETS Translocation GI50; 72 h growth inhibition, PC-3 cells
HCT 116 cells = assay: 72 h GI50 assay in HCT 116; settings: read-out: HCT 116 GI50; 72 h growth inhibition
[2] = test system: VCaP prostate cancer cells (TMPRSS2-ERG); assay: 72 h GI50 assay in VCaP; settings: for GI50: read-out: VCaP Prostate Cancer TMPRSS2-ERG GI50, 72 h growth inhibition, VCaP cells; for Ratio of median GI50 Prostate cells lacking TMPRSS2-ERG:VCaP: selectivity for VCaP over other prostate cancer cell lines
LNCaP cells = assay: 72 h GI50 assay in LNCaP; settings: read-out: LNCaP GI50; 72 h growth inhibition
[3] = test system: ES-2 Ewing sarcoma cells (EWS-FLI1 Type 3); assay: 72 h GI50 assay in ES-2; settings: read-out: ES-2 EWS-FLI1 Type 3 GI50; 72 h growth inhibition
[4] = test system: Ewing sarcoma cell lines (TC-32, 5838, RD-ES, TC-71, A-673, ES-2, ES-7, ES-8); assay: Median GI50 in panel of Ewing sarcoma cell lines; settings: for Ratio of Median GI50 non-Ewing sarcoma:Ewing sarcoma (Selectivity Index): median GI50 non-Ewing panel over Ewing panel; for Selectivity Index ratio Analogues:MTM (1): selectivity index relative to MTM (1); for GI50: read-out: Median GI50 in Ewing sarcoma cell lines, median over 8 Ewing sarcoma cell lines, 72 h
[5] = test system: A-673 Ewing sarcoma cells (EWS-FLI1 Type 1); assay: 72 h GI50 assay in A-673; settings: read-out: A-673 EWS-FLI1 Type 1 GI50; 72 h growth inhibition
[6] = test system: ES-7 Ewing sarcoma cells (EWS-FLI1 Type 4); assay: 72 h GI50 assay in ES-7; settings: read-out: ES-7 EWS-FLI1 Type 4 GI50; 72 h growth inhibition
HeLa cells = assay: 72 h GI50 assay in HeLa; settings: read-out: HeLa GI50; 72 h growth inhibition
[7] = test system: 5838 Ewing sarcoma cells (EWS-ERG); assay: 72 h GI50 assay in 5838; settings: for GI50: read-out: 5838 Ewing Sarcoma EWS-ERG GI50, 72 h growth inhibition, 5838 cells; for Ratio of median GI50 Non-Ewing sarcoma cell lines (cf Table 3):5838: selectivity for 5838 cells
[8] = test system: prostate cell lines lacking TMPRSS2-ERG; assay: Median GI50 in prostate cell lines lacking TMPRSS2-ERG; settings: read-out: Median GI50 in prostate cell lines, lacking TMPRSS2-ERG; unit inferred
[9] = test system: ES-8 Ewing sarcoma cells (EWS-FLI1 Type 2); assay: 72 h GI50 assay in ES-8; settings: read-out: ES-8 EWS-FLI1 Type 2 GI50; 72 h growth inhibition
PANC-1 cells = assay: 72 h GI50 assay in PANC-1; settings: read-out: PANC-1 GI50; 72 h growth inhibition
[10] = test system: TC-71 Ewing sarcoma cells (EWS-FLI1 Type 1); settings: 72 h growth inhibition
DMS 114 cells = assay: 72 h GI50 assay in DMS 114; settings: read-out: DMS 114 GI50; 72 h growth inhibition
DU 145 cells = assay: 72 h GI50 assay in DU 145; settings: read-out: DU 145 GI50; 72 h growth inhibition
A549 cells = assay: 72 h GI50 assay in A549; settings: read-out: A549 GI50; 72 h growth inhibition
[11] = test system: TC-32 (Ewing sarcoma, EWS-FLI1 Type 1) cell line; settings: for TC-32 Ewing sarcoma EWS-FLI1 Type 1 GI50: 72 h growth inhibition, TC-32 cells; for GI50 ratio PC-3:TC-32: selectivity, GI50 in PC-3 over GI50 in TC-32
[12] = test system: RD-ES Ewing sarcoma cells (EWS-FLI1 Type 2); assay: 72 h GI50 assay in RD-ES; settings: read-out: RD-ES EWS-FLI1 Type 2 GI50; 72 h growth inhibition
CMV promoter = CMV promoter luciferase reporter assay in stably transfected TC-32 cells (non-specific control); type: cell-based; settings: 12 h; for CMV promoter driven luciferase signal: treated up to 10 μM
Description: Full-length NR0B1 promoter sequence was PCR amplified using Q5 high-fidelity DNA polymerase (New England Biolabs, Ipswich, Mass.) from genomic DNA of TC-32 cells and cloned into the pGLUC-Basic 2 vector (New England Biolabs, Ipswich, Mass.). XhoI and KpnI restriction sites were incorporated into the primers. After restriction enzyme (New England Biolabs, Ipswich, Mass.) digest and purification by gel electrophoresis, the target amplicon was ligated into the pGLUC-Basic 2 vector using T4 DNA ligase (Thermo Fisher Scientific, Waltham, Mass.). Chemically competent TOP10 E. coli cells were used to propagate vectors under ampicillin selection (100 μg/mL) (Thermo Fisher Scientific, Waltham, Mass.). The resulting vectors were extracted and purified using GeneJET plasmid prep kit (Thermo Fisher Scientific, Waltham, Mass.). The purified vector was transfected into TC-32 cells using lipofectamine 3000 (Thermo Fisher Scientific, Waltham, Mass.) with subsequent G418 selection (1 mg/mL) (VWR, Radnor, Pa.). Separately, TC-32 cells were transfected with pCMV-Red Firefly Vector (Thermo Fisher Scientific, Waltham, Mass.) with subsequent puromycin selection (0.1 mg/mL) (Sigma, St. Louis, Mo.) as a control.
Selected TC-32 cells, expressing either NR0B1 or CMV luciferase reporter vectors, were seeded in clear 96-well plates at a density of 10,000 cells/well. […] After a 12 h treatment, media was removed and cells were washed 3 times with DPBS (Thermo Fisher Scientific, Waltham, Mass.). Cells were directly lysed on a plate shaker for 30 min at room temperature using 100 μL of passive membrane lysis solution. Lysates (80 μL) were transferred to a white luminescence plate. Luciferase substrate, either coelenterazine or D-luciferin (50 μL of 1× solution), for NR0B1 or CMV vectors, respectively, was added in a Glomax 96 microplate luminometer (Promega, Madison, Wis.) and luminescence was immediately measured. Delay before and after injections were set to the default of 0.4 s and a 10 s integration time was used. All reagents used in this assay were from the dual luciferase reporter assay system (Promega, Madison, Wis.). Concurrently, an additional 96 well plate was seeded and treated under the exact same conditions to determine cell viability using resazurin assay. Luminescence results were normalized to cell viability.

Row | Molecule | GI50 [1] [nM] | GI50 (HCT 116 cells) [nM] | GI50 [2] [nM] | Ratio of median GI50 Prostate cells lacking TMPRSS2-ERG:VCaP [2] | GI50 [3] [nM] | Ratio of Median GI50 non-Ewing sarcoma:Ewing sarcoma (Selectivity Index) [4] | Selectivity Index ratio Analogues:MTM (1) [4] | GI50 [5] [nM] | GI50 [6] [nM] | GI50 (HeLa cells) [nM] | GI50 [7] [nM] | Ratio of median GI50 Non-Ewing sarcoma cell lines (cf Table 3):5838 [7] | GI50 [9] [nM] | GI50 (PANC-1 cells) [nM] | TC-71 EWS-FLI1 Type 1 GI50 [10] [nM] | GI50 (DMS 114 cells) [nM] | GI50 (DU 145 cells) [nM] | GI50 (A549 cells) [nM] | TC-32 Ewing sarcoma EWS-FLI1 Type 1 GI50 [11] [nM] | GI50 [12] [nM] | also measured
1 | COC(=O)C(Cc1cn(C)c2ccccc12)NC(=O)C(OC)C1Cc2cc3cc(OC4CC(OC5CC(O)C(O)C(C)O5)C(O)C(C)O4)c(C)c(O)c3c(O)c2C(=O)C1OC1CC(OC2CC(OC3CC(C)(O)C(O)C(C)O3)C(O)C(C)O2)C(O)C(C)O1 (stereo not shown) [Analogue 45] | 1560 | 826 | 307 | 5.1 | 1500 | 2.4 | 1.6 | 1010 | 672 | 1760 | 121 | 13.3 | 1330 | 1730 | 696 | 1050 | 761 | 2370 | 139 | 539 | GI50 (LNCaP cells): 1860 nM; GI50 [8]: 1560 nM; fold increase in selectivity ([11]; PC-3:TC-32 selectivity, comparator not stated): ~4 fold; GI50 ratio PC-3:TC-32 [11]: 11.2
2 | COC(=O)C(Cc1ccccc1)NC(=O)C(Cc1c[nH]c2ccccc12)NC(=O)C(OC)C1Cc2cc3cc(OC4CC(OC5CC(O)C(O)C(C)O5)C(O)C(C)O4)c(C)c(O)c3c(O)c2C(=O)C1OC1CC(OC2CC(OC3CC(C)(O)C(O)C(C)O3)C(O)C(C)O2)C(O)C(C)O1 (stereo not shown) [Analogue 59, MTMSA-Trp-Phe] | 75 | 82 | 21 | 3.6 | 125 | 2.4 and < 3 | 1.6 | 238 |  | 397 | 39 | 3.9 | 74 | 152 | 19 | 18 | 67 | 1940 | 37 | 54 | GI50 (LNCaP cells): 697 nM; CMV driven luciferase expression decreased down to (CMV promoter; concentrations between 1 and 10 μM): ~75%; CMV promoter driven luciferase signal (CMV promoter): decreased; CMV promoter driven luciferase signal (CMV promoter; listed as MTMSA-Trp-Phe (59)): reduces; GI50 [4]: 64 nM; GI50 ratio PC-3:TC-32 [11]: 2.0
3 | COC(=O)C(Cc1c[nH]c2cc(F)ccc12)NC(=O)C(OC)C1Cc2cc3cc(OC4CC(OC5CC(O)C(O)C(C)O5)C(O)C(C)O4)c(C)c(O)c3c(O)c2C(=O)C1OC1CC(OC2CC(OC3CC(C)(O)C(O)C(C)O3)C(O)C(C)O2)C(O)C(C)O1 (stereo not shown) [Analogue 56] | 187 | 419 | 319 | 0.6 | 3310 | 0.9 | 0.6 | 262 | 1660 | 1550 | 466 | 0.9 | 401 | 386 | 640 | 2470 | 157 | 941 | 27 | 1000 | GI50 (LNCaP cells): 1960 nM; GI50 [4]: 466 nM; GI50 [8]: 187 nM; GI50 ratio PC-3:TC-32 [11]: 6.9
4 | Mithramycin SA Phenylalanine [MTMSA-Phe (4), reference compound] | 910 | 256 |  |  | 261 |  |  |  | 156 | 545 |  |  | 72 | 261 | 143 | 483 | 315 | 1240 | 32 | 91 | GI50 [4]: 117 nM
5 | COC(=O)C(Cc1ccccc1)NC(=O)C(Cc1ccccc1)NC(=O)C(OC)C1Cc2cc3cc(OC4CC(OC5CC(O)C(O)C(C)O5)C(O)C(C)O4)c(C)c(O)c3c(O)c2C(=O)C1OC1CC(OC2CC(OC3CC(C)(O)C(O)C(C)O3)C(O)C(C)O2)C(O)C(C)O1 (stereo not shown) [Analogue 63, MTMSA-Phe-Phe] | 1130 | 437 | 442 | 2.6 |  | 3.5 | 2.3 | 491 | 910 | 1770 | 579 | 3.4 | 542 | 1960 | 211 | 2310 | 159 |  | 232 | 3050 | GI50 ratio PC-3:TC-32 [11]: 4.9
